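1) Cells in 96-well plates. 2) Compound, 48 h, 5 concentrations. 3) Linear interpolation between surrounding doses. 4) Unreached endpoint = highest concentration. The concentration for 50% growth inhibition is given as GI50. Definition used: TGI = concentration required for complete inhibition of growth.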
What was measured:
Assay in all cases: NCI-60 cell line screen, 48 h
[1] = system: SNB-19 CNS
[2] = system: SF-268 CNS
[3] = system: MDA-MB-435
[4] = system: U251 CNS
[5] = system: HOP-92 NSCLC
[6] = system: MDA-N
[7] = system: M14 melanoma
[8] = system: UO-31 renal
[9] = system: HL-60(TB) leukemia
[10] = system: SR leukemia

| SMILES | TGI [1] [µM] | TGI [2] [µM] | TGI [3] [µM] | TGI [4] [µM] | TGI [5] [µM] | TGI [6] [µM] | TGI [7] [µM] | TGI [8] [µM] | TGI [9] [µM] | TGI [10] [µM] | GI50 [1] [µM] | GI50 [2] [µM] | GI50 [10] [µM] | GI50 [3] [µM] | GI50 [4] [µM] | GI50 [7] [µM] | GI50 [9] [µM] | GI50 [5] [µM] | GI50 [8] [µM] |
| --- | --- | --- | --- | --- | --- | --- | --- | --- | --- | --- | --- | --- | --- | --- | --- | --- | --- | --- | --- |
| COC(c1ccsc1)C(C#N)(C#N)N=Cc1ccsc1 (stereo unspecified) | 55.3 | 33.8 | 29.6 | 33.5 | 27.1 | 33.4 | 33.7 | 26.2 | 16.2 |  |  |  |  |  |  |  |  |  |  |
| CSC1=Nc2ccccc2-c2nc(-c3ccccc3)cc(-c3ccccc3)c2C1 | > 100 |  | > 100 | 44.4 |  | > 100 | 37.1 | 76.6 | > 100 | > 100 |  |  |  |  |  |  |  |  |  |
| COC12C=C/C(=C(/C(=O)OCc3ccncn3)C(=O)CCCCCCCCC3(OC)C=C/C(=C(/C(=O)OCc4ccncn4)C(=O)CCCCCCCC1)O3)O2 | 17.1 | 1.92 | 0.405 | 1.54 |  |  | 3.23 |  | 1.4 | > 100 | 0.509 | 0.314 | 0.296 | 0.194 | 0.335 | 0.286 | 0.298 |  |  |
| COc1cc(/C=C2\C[C@H]3[C@@H]4CC=C5C[C@@H](N6CCCC6)CC[C@]5(C)[C@H]4CC[C@]3(C)[C@H]2O)cc(OC)c1OC | 35.8 | 16.5 | 18.5 | 28.8 | 25 |  | 4.74 | 6.6 | 21.9 | > 100 |  |  |  |  |  |  |  |  |  |
| CC1(C)O[C@H](C(=O)O)[C@@H](C(=O)O)O1 | > 100 | > 100 | > 100 | > 100 | > 100 | > 100 | > 100 |  |  | > 100 |  |  |  |  |  |  |  |  |  |
| CN(C)N=Nc1ccc([N+](=O)[O-])cc1C(N)=O | > 100 | > 100 |  | > 100 | > 100 |  |  | > 100 |  |  |  |  |  |  |  |  |  |  |  |
| O=C(NCC1Nc2ccncc2S(=O)(=O)N1)c1ccc(Br)cc1 (stereo unspecified) | > 100 | 81.2 | 37.2 | > 100 | > 100 | 58.6 | 90.8 | > 100 | > 100 |  |  |  |  |  |  |  |  |  |  |
| CC(=O)Nc1ccc(S(=O)(=O)Nc2nnc(S(N)(=O)=O)s2)cc1 | > 100 | > 100 | > 100 | > 100 | > 100 |  | > 100 | > 100 | > 100 | > 100 |  |  |  |  |  |  |  |  |  |
| Cc1nc2c(cc1C(=O)NN)c(=O)n(C)c(=O)n2C | > 100 |  | > 100 | > 100 |  | > 100 | > 100 | > 100 |  |  |  |  |  |  |  |  |  |  |  |
| CC(=O)N1N=C(c2c(O)ccc3ccccc23)CC1C(=O)c1ccco1 (stereo unspecified) |  | > 100 | > 100 | > 100 | > 100 | 76.9 | > 100 | > 100 |  | 45.3 |  |  |  |  |  |  |  |  |  |
| CCN1CCN(C(=O)[C@]23CC[C@@H](C)[C@H](C)[C@@H]2C2=CC[C@@H]4[C@@]5(C)C/C(=C/c6cccnc6)C(=O)C(C)(C)[C@@H]5CC[C@@]4(C)[C@]2(C)CC3)CC1 | 3.74 | 4.02 | 3.49 |  | 5.73 |  |  | 2.65 | 5 | 7.09 | 1.79 | 1.77 | 2.38 | 1.7 |  |  | 2.08 | 1.57 | 1.36 |
| Cc1cn(C2CC(O)C(CO)C2C)c(=O)[nH]c1=O (stereo unspecified) | > 100 | > 100 |  | > 100 | > 100 |  | > 100 | > 100 | > 100 |  |  |  |  |  |  |  |  |  |  |
| CO/C(=N\N=C\c1ccc(Cl)cc1)c1ccncc1 | > 100 | > 100 |  | > 100 | > 100 |  | > 100 | > 100 | > 100 | > 100 |  |  |  |  |  |  |  |  |  |
| CC/C(Cl)=N\OC(=O)Nc1ccc(OC)cc1 | 56.2 | 32.1 | 25.8 | > 57.2 | 5.98 | 11.3 | 9.77 | 20.8 | 4.36 |  |  |  |  |  |  |  |  |  |  |
| O=S(=O)(c1cc(Cl)ccc1Cl)N1CCN(S(=O)(=O)c2cc(Cl)ccc2Cl)CC1 | > 100 | > 100 | > 100 | > 100 | > 100 | > 100 | > 100 | > 100 |  |  |  |  |  |  |  |  |  |  |  |
| CCCSc1cc(Cl)c(C)cc1S(=O)(=O)n1ccnc1OCCCN(C)C | > 100 | > 100 | > 100 | > 100 |  | > 100 | > 100 | > 100 |  | > 100 |  |  |  |  |  |  |  |  |  |
| O=[N+]([O-])C(/C(Cl)=C(/Cl)N1CCOCC1)=C1\NCCO1 | > 100 | > 100 | > 100 | > 100 |  | > 100 | > 100 | > 100 |  |  |  |  |  |  |  |  |  |  |  |
| O=C1C=Cc2c(Cl)sc(Cl)c21 | 19.8 | 3.58 | 5.31 | > 100 |  |  | 3.99 |  |  |  |  |  |  |  |  |  |  |  |  |
| CCN(CC)CCCCCCCCNc1c2ccc(Cl)cc2nc2ccc(OC)cc12 | 4.63 | 3.76 | 3.74 | 2.97 | 3.31 |  | 3.34 | 4.34 | 4.08 | 0.73 | 1.81 | 1.7 | 0.289 | 1.87 | 1.38 | 1.84 | 2.04 | 1.39 | 1.72 |
| CCOC(=O)c1ccc(-c2cc(C)[nH]n2)[nH]1 | > 100 | > 100 | > 100 | > 100 | > 100 | > 100 | > 100 | > 100 | > 100 |  |  |  |  |  |  |  |  |  |  |
| Cc1cc(S(=O)(=O)Nc2nc3ccsc3c(=O)n2N)c(S)cc1Cl | > 100 | > 100 | > 100 | > 100 |  | > 100 | > 100 |  | > 100 |  |  |  |  |  |  |  |  |  |  |
| C[C@]12CC[C@H]3[C@@H](CCC4=CC(=O)C=C[C@@]43O)[C@@H]1CCC2=O | > 100 |  | > 100 | > 100 | > 100 | > 100 | > 100 | > 100 |  | > 100 |  |  |  |  |  |  |  |  |  |
| CC(C)(C)C#C[P+](c1ccccc1)(c1ccccc1)c1ccccc1 | 1.51 | 1.48 |  | 1.32 | 0.689 |  | 1.21 | 7.28 | 0.0865 | 0.611 |  |  |  |  |  |  |  |  |  |
